Our source for the pest or weed control and chromatographic logP values is US8536202B2, “Triazole-substituted anthranilamides as pesticides” (Bayer Cropscience AG, priority 2010, dated 2013).

Each structure is given as a SMILES string. Read-outs that look alike come from different tables or passages of the source.

The test system of data set [1] is caterpillars of the armyworm (Spodoptera frugiperda). Nature of the data set: Spodoptera frugiperda test (SPODFR spray treatment). Format: in vivo. The note with it: 168 h, 100 g/ha, after 7 days, read-out: activity in %. As to the method: (§1) Solvents: 78.0 parts by weight of acetone • • 1.5 parts by weight of dimethylformamide
(§2) Emulsifier: 0.5 part by weight of alkylaryl polyglycol ether
(§3) An appropriate preparation of active compound is prepared by mixing 1 part by weight of active compound with the stated amounts of solvent and emulsifier and diluting the concentrate with emulsifier-containing water to the desired concentration.
Leaf discs of maize (Zea mays) are sprayed with a preparation of active compound at the desired concentration and, after drying, are populated with caterpillars of the armyworm (Spodoptera frugiperda).
After 7 days, the activity in % is ascertained. Here, 100% means that all of the caterpillars have been killed; 0% means that no caterpillar has been killed.

The nature of data set [2]: log P determination by HPLC on reversed-phase columns (EEC Directive 79/831 Annex V.A8). Format: physicochemical. The note with it: pH 2.7. As to the method: Determination by LC-MS in the acidic range takes place at a pH of 2.7 using 0.1% aqueous formic acid and acetonitrile (containing 0.1% formic acid) as eluents, with a linear gradient from 10% acetonitrile to 95% acetonitrile.
Calibration was carried out using unbranched alkan-2-ones (having 3 to 16 carbon atoms) with known log P values (the log P values are determined from the retention times by linear interpolation between two successive alkanones).

Data set [3] has as its system larvae of the mustard beetle (Phaedon cochleariae). Nature of the data set: Phaedon test (PHAECO spray treatment). Format: in vivo. The note with it: 168 h, 100 g/ha, after 7 days, read-out: activity in %. As to the method:
as §1, §2, §3
After 7 days, the activity in % is ascertained. Here, 100% means that all of the beetle larvae have been killed; 0% means that no beetle larvae have been killed.

On to `Cc1cc(C#N)cc(C(N)=O)c1NC(=O)c1cc(Cn2cc(-c3ccc(C(F)(F)F)cc3)nn2)nn1-c1ncccc1Cl` [Example 2], for which the pest or weed control at 100 g/ha in data set [1] and in data set [3] was 100% throughout. This molecule returned a chromatographic logP in data set [2] of 2.81.
Consider `CNC(=O)c1cc(C#N)cc(C)c1NC(=O)c1cc(Cn2cc(-c3ccc(C(F)(F)F)cc3)nn2)nn1-c1ncccc1Cl` [Example 3], for which the pest or weed control at 100 g/ha in data set [1] and in data set [3] was 100% each time. For the same molecule, in data set [2], the chromatographic logP was 2.99.
For `Cc1cc(C#N)cc(C(=O)NC(C)C)c1NC(=O)c1cc(Cn2cc(-c3ccc(C(F)(F)F)cc3)nn2)nn1-c1ncccc1Cl` [Example 4], the pest or weed control at 100 g/ha in data set [1] and in data set [3] was 100% in each case. In data set [2] (reversed-phase C18 HPLC column, HPLC on reversed-phase columns (C 18), EEC Directive 79/831 Annex V.A8, read-out: logP), the chromatographic logP amounted to 3.39.
On to `CNC(=O)c1cc(Cl)cc(C)c1NC(=O)c1cc(Cn2cc(C(C)C)nn2)nn1-c1ncccc1Cl` [Example 14], for which the chromatographic logP in data set [2] was 2.29. For the same molecule, the pest or weed control at 100 g/ha in data set [3] stood at 83%.
For the molecule `CNC(=O)c1cc(Cl)cc(C)c1NC(=O)c1cc(Cn2cc(-c3ccc(F)cc3)nn2)nn1-c1ncccc1Cl` [Example 16], the results for the pest or weed control at 100 g/ha in data set [1] and in data set [3] were 83% and 100%, respectively. The molecule further gave a chromatographic logP in data set [2] of 2.84.
In the case of `CNC(=O)c1cc(Cl)cc(C)c1NC(=O)c1cc(Cn2cc(-c3ccc(Cl)cc3)nn2)nn1-c1ncccc1Cl` [Example 17], the pest or weed control at 100 g/ha in data set [1] and in data set [3] was 100% throughout. The same molecule came in with a chromatographic logP in data set [2] of 3.57.
With `CNC(=O)c1cc(Cl)cc(C)c1NC(=O)c1cc(Cn2cc(-c3ccc(Cl)cc3Cl)nn2)nn1-c1ncccc1Cl` [Example 18], the pest or weed control at 100 g/ha in data set [1] and in data set [3] was 100% throughout. Further, the chromatographic logP in data set [2] came out at 3.2.
On to `CNC(=O)c1cc(Cl)cc(C)c1NC(=O)c1cc(Cn2cc(-c3ccccc3Cl)nn2)nn1-c1ncccc1Cl` [Example 19], for which the pest or weed control at 100 g/ha in data set [1] and in data set [3] was 100% throughout. In data set [2], this molecule gave a chromatographic logP of 2.74.
Turning to `CNC(=O)c1cc(Cl)cc(C)c1NC(=O)c1cc(Cn2cc(-c3cccc(Cl)c3)nn2)nn1-c1ncccc1Cl` [Example 20], the pest or weed control at 100 g/ha in data set [1] and in data set [3] was 100% throughout. Further, in data set [2], the chromatographic logP amounted to 3.11.
Turning to `CNC(=O)c1cc(Cl)cc(C)c1NC(=O)c1cc(Cn2ncc(-c3ccc(F)cc3)n2)nn1-c1ncccc1Cl` [Example 24], the pest or weed control at 100 g/ha in data set [1] and in data set [3] was 100% throughout. The same molecule had a chromatographic logP in data set [2] of 3.23.
Turning to `CNC(=O)c1cc(Cl)cc(C)c1NC(=O)c1cc(Cn2ncc(-c3ccc(Cl)cc3)n2)nn1-c1ncccc1Cl` [Example 25], the pest or weed control at 100 g/ha in data set [1] and in data set [3] was 100% each time. In data set [2], the chromatographic logP was 3.62.
On to `CNC(=O)c1cc(Cl)cc(C)c1NC(=O)c1cc(Cn2ncc(-c3ccccc3Cl)n2)nn1-c1ncccc1Cl` [Example 27], for which the pest or weed control at 100 g/ha in data set [1] and in data set [3] was 100% each time. The same molecule registered a chromatographic logP in data set [2] of 3.43.
For the molecule `CNC(=O)c1cc(Cl)cc(C)c1NC(=O)c1cc(Cn2ncc(-c3cccc(Cl)c3)n2)nn1-c1ncccc1Cl` [Example 28], the pest or weed control at 100 g/ha in data set [1] and in data set [3] was 100% each time. The molecule further gave a chromatographic logP in data set [2] of 3.63.
In data set [2], `CNC(=O)c1cc(C#N)cc(C)c1NC(=O)c1cc(Cn2cc(C3CC3)nn2)nn1-c1ncccc1Cl` [Example 29] gave a chromatographic logP of 1.86. The pest or weed control at 100 g/ha in data set [3] was 100%.
In the same order, the values of `CNC(=O)c1cc(C#N)cc(C)c1NC(=O)c1cc(Cn2cc(C(C)C)nn2)nn1-c1ncccc1Cl` [Example 30] are 2.03 and 100%.
In the same order, the values of `CNC(=O)c1cc(C#N)cc(C)c1NC(=O)c1cc(Cn2cc(C(C)(C)C)nn2)nn1-c1ncccc1Cl` [Example 31] are 2.25 and 100%.
As for `CNC(=O)c1cc(C#N)cc(C)c1NC(=O)c1cc(Cn2cc(-c3ccc(Cl)cc3)nn2)nn1-c1ncccc1Cl` [Example 33], the pest or weed control at 100 g/ha in data set [1] and in data set [3] was 100% throughout. In addition, the chromatographic logP in data set [2] turned out to be 2.75.
For `CNC(=O)c1cc(C#N)cc(C)c1NC(=O)c1cc(Cn2cc(-c3ccc(Cl)cc3Cl)nn2)nn1-c1ncccc1Cl` [Example 34], the pest or weed control at 100 g/ha in data set [1] and in data set [3] was 100% throughout. The molecule further showed a chromatographic logP in data set [2] of 3.2.
For `CNC(=O)c1cc(C#N)cc(C)c1NC(=O)c1cc(Cn2cc(-c3cccc(Cl)c3)nn2)nn1-c1ncccc1Cl` [Example 36], the pest or weed control at 100 g/ha in data set [1] and in data set [3] was 100% throughout. The same molecule showed a chromatographic logP in data set [2] of 2.86.
In the case of `CNC(=O)c1cc(C#N)cc(C)c1NC(=O)c1cc(Cn2ncc(C3CC3)n2)nn1-c1ncccc1Cl` [Example 37], the chromatographic logP in data set [2] was found to be 2.28. For the same molecule, in data set [3], the pest or weed control at 100 g/ha is 100%.
In the same order, the values of `CNC(=O)c1cc(C#N)cc(C)c1NC(=O)c1cc(Cn2ncc(C(C)C)n2)nn1-c1ncccc1Cl` [Example 38] are 2.58 and 100%.
Take `CNC(=O)c1cc(C#N)cc(C)c1NC(=O)c1cc(Cn2ncc(-c3ccc(F)cc3)n2)nn1-c1ncccc1Cl` [Example 40]: the pest or weed control at 100 g/ha in data set [1] and in data set [3] was 100% each time. In addition, the chromatographic logP in data set [2] stood at 2.96.
Turning to `CNC(=O)c1cc(C#N)cc(C)c1NC(=O)c1cc(Cn2ncc(-c3ccc(Cl)cc3)n2)nn1-c1ncccc1Cl` [Example 41], the pest or weed control at 100 g/ha in data set [1] and in data set [3] was 100% each time. For the same molecule, the chromatographic logP in data set [2] amounted to 3.34.
Turning to `CNC(=O)c1cc(C#N)cc(C)c1NC(=O)c1cc(Cn2ncc(-c3ccc(Cl)cc3Cl)n2)nn1-c1ncccc1Cl` [Example 42], the pest or weed control at 100 g/ha in data set [1] and in data set [3] was 100% each time. In addition, the chromatographic logP in data set [2] is 3.81.
Turning to `CNC(=O)c1cc(C#N)cc(C)c1NC(=O)c1cc(Cn2ncc(-c3ccccc3Cl)n2)nn1-c1ncccc1Cl` [Example 43], the pest or weed control at 100 g/ha in data set [1] and in data set [3] was 100% in each case. In data set [2], this molecule had a chromatographic logP of 3.21.
On to `CNC(=O)c1cc(C#N)cc(C)c1NC(=O)c1cc(Cn2ncc(-c3cccc(Cl)c3)n2)nn1-c1ncccc1Cl` [Example 44], for which the pest or weed control at 100 g/ha in data set [1] and in data set [3] was 100% each time. Further, in data set [2], the chromatographic logP was 3.23.
With `Cc1cc(Cl)cc(C(=O)NC(C)(C)C)c1NC(=O)c1cc(Cn2ncc(C3CC3)n2)nn1-c1ncccc1Cl` [Example 46], the chromatographic logP in data set [2] is 3.6. The pest or weed control at 100 g/ha in data set [3] was determined as 100%.
The matching figures for `Cc1cc(I)cc(C(=O)NC2CCC2)c1NC(=O)c1cc(Cn2ncc(C(F)(F)F)n2)nn1-c1ncccc1Cl` [Example 164]: 3.89 and 100%.
In data set [2], `Cc1cc(C#N)cc(C(=O)NCC#N)c1NC(=O)c1cc(Cn2cc(C(F)(F)F)nn2)nn1-c1ncccc1Cl` [Example 186] registered a chromatographic logP of 2.32. Further, the pest or weed control at 100 g/ha in data set [3] came out at 100%.
